“Also recorded” adds a separate entry of the source.
Assays:
[1] = tested on: SHOX2:GFP+ hPSC-SAN cells; assay: DOXO toxicity, cleaved caspase3+ cells, in hPSC-SAN cells; format: cell-based, human; conditions: 0.16 μM DOXO, 3 days, day 35 pacemaker-like cells
Description: (§1) FIG. 4. Pharmacogenetics and drug discovery for doxorubicin-mediated acute cell toxicity using hPSC-SAN cells. a, Relative cell toxicity of hESC-SAN and hESC-V cells upon DOXO treatment based on immunostaining of antibody against cleaved-caspase3. The fold change was calculated by dividing the percentage of cleaved caspase-3^+ cells in GFP^+ or mCherry^+ cells in the DOXO-treated condition by the percentage of cleaved caspase-3^+ cells in GFP^+ or mCherry^+ cells in the DMSO-treated condition (n=10); b, Sensitivity of day 30 hiPSC-SAN cells derived from 48 hiPSC lines upon DOXO treatment. 48 hiPSC lines were differentiated toward SAN-like cells and split into two equal samples, which were treated with 0.16 μM doxorubicin or DMSO for 3 days. The fold change was calculated by dividing the percentage of cleaved caspase-3^+ cells in ISL1^+ cells in the DOXO-treated condition by the percentage of cleaved caspase-3^+ cells in ISL1^+ cells in the DMSO-treated condition. […] Data are mean±s.e.m. Data were normalized to non-DOXO treated cells.

[2] = tested on: SHOX2:GFP-; MHC6:mCherry+ cardiomyocytes; conditions: 0.16 μM DOXO, 3 days, day 35 cardiomyocytes
Description: as §1

[3] = tested on: hPSC-SAN cells differentiated from 48 distinct iPSC lines; assay: DOXO sensitivity of hPSC-SAN cells differentiated from 48 iPSC lines (cleaved caspase-3 / ISL1 staining); format: cell-based, human; conditions: 0.16 μM DOXO, 3 days
Description: FIG. 4. […] Data are mean±s.e.m. Data were normalized to non-DOXO treated cells.
To identify genetic variation that associates with the sensitivity of pacemaker cells to DOXO-induced toxicity, we performed an unbiased screen using a library of hPSC-SAN cells differentiated from 48 distinct iPSC lines. Cells differentiated for 35 days were treated with 0.16 μM DOXO for 3 days. Due to the lack of a robust antibody to SHOX2, an antibody recognizing ISL1 that is co-expressed with SHOX2:GFP (FIG. 2a), was used to identify hPSC-SAN cells that co-stain for cleaved caspase-3, as an assay for cytotoxicity. […] We identified 14 “high-sensitive” iPSC lines that generate hPSC-SAN cells displaying DOXO-induced apoptosis rates greater than 4-fold compared to DMSO-treated cells (FIG. 4b). To test if this platform can be applied toward in vitro pharmacogenomics, the iPSC clones were sequenced at several genomic regions harboring known SNPs associated with increased DOXO-mediated cardiotoxicity, including rs1056892, rs2229774 and rs885004 (in or near the genes CBR3, RARG and SLC28A3, respectively). 10 out of the 14 high-sensitive iPSC lines harbored one of these 3 SNPs (FIG. 4c). All 4 of the lines carrying the risk allele of rs1056892 generated hPSC-SAN cells with more than 4-fold increased toxicity. This is consistent with findings that CBR3 is expressed in heart tissue and functions for drug metabolism.

HCN4+ SAN cells = conditions: mouse, in vivo
Description: FIG. 12. […] Immunofluorescence of intact atria isolated from Doxorubicin (two IP injections of 10 mg/kg at 3 day intervals) treated mice euthanized 9 days after initial treatment. Cell death (caspase 3, green) was analyzed in either myocardial (cTroponin, blue) or SAN tissue (HCN4, red).
FIG. 13. […] Contractions of intact atria isolated from vehicle (left panels) or Doxorubicin (right panels) treated mice (30 sec recordings;) x axis=[…]. […] Quantification of contraction rhythmicity of hearts was calculated by the coefficient of variance (COV)=std dev of peak to peak contraction time/average peak to peak contraction time.
C57BL/6 mice were treated with 20 mg/kg Doxorubicin by intraperitoneal injection.

murine SAN = assay: Ex vivo murine atrial explants (SAN cell death, contraction rhythmicity)
Description: FIG. 15. […] Quantification of contraction rhythmicity of explants was calculated by the COV as described above.
FIG. 16. […] Quantification of contraction rhythmicity of explants was calculated by the COV as described above.
Thus, we used an ex vivo model to document the direct effect of Doxorubicin and Physcion on the murine SAN. Whole, intact atrial explants were incubated with 1 μM doxorubicin or 1 uM doxorubicin+20 μM Physcion for 3 hrs.

A549 xenograft tumors = assay: A549 xenograft mouse model; format: in vivo; conditions: IP once a week for two weeks; for tumor burden / growth (tumor wt. and volume), single agent: 4 mg/kg
Description: FIG. 18. […] We tested the effects of Doxorubicin and Physcion using an A549 xenograft mouse model. Mice with A549 xenograft tumors were treated with vehicle, Doxorubicin, Physcion, or Doxorubicin plus Physcion. Doxorubicin and Physcion treatment was administered by IP injection once a week for two weeks, at a concentration of 4 mg/kg wt for both compounds.

[4] = cited from earlier work
hPSC-SAN cells = assay: Chemical screen and validation for rescue of DOXO toxicity in hPSC-SAN cells; format: cell-based, human
Description: The fold change was calculated by dividing the percentage of cleaved caspase-3^+ cells in GFP^+ or mCherry^+ cells in the DOXO-treated condition by the percentage of cleaved caspase-3^+ cells in GFP^+ or mCherry^+ cells in the DMSO-treated condition (n=10); b, Sensitivity of day 30 hiPSC-SAN cells derived from 48 hiPSC lines upon DOXO treatment. […] The fold change was calculated by dividing the percentage of cleaved caspase-3^+ cells in ISL1^+ cells in the DOXO-treated condition by the percentage of cleaved caspase-3^+ cells in ISL1^+ cells in the DMSO-treated condition. […] Data were normalized to non-DOXO treated cells (n=4). h, Quantification of cell toxicity on hPSC-SAN cells derived from sensitive iPSC lines after co-treatment with DOXO and either 10 μM physcion (n=3) or DMSO (n=4). *p<0.05 **p<0.01. t-test. Data are mean±s.e.m. Data were normalized to non-DOXO treated cells.
Day 35 cells were treated for 3 days with DOXO and small molecules.
1472 compounds were tested consisting of FDA-approved drugs and natural products. Hit targets were selected based on a reduced percent ratio of GFP^+ cleaved caspase-3^+/GFP^+ cells (FIG. 11a). The compounds that decreased the cell death rate by more than two-fold of the standard deviation below the average of DMSO-treated samples were selected as primary hits. […]

[5] = tested on: A549 human epithelial lung cancer cells; assay: Chemotherapeutic effect on A549 cells in culture; format: cell-based; conditions: 72 hrs
Description: FIG. 17. […] We tested the effects of Physcion and Physcion+Doxorubicin on A549 human epithelial lung cancer cells grown in culture. 5×10^4 cells were treated with varying doses of Doxorubicin and Physcion for 72 hrs.

SHOX2:GFP+ cells = assay: Epigenetic library screen for SHOX2:GFP+ cells; format: cell-based, human; conditions: condition 8, compound added at day 7, after 14 days of differentiation
Source text: To quantify and purify SAN-like cells using this directed differentiation protocol, a dual knock-in SHOX2:GFP; MYH6:mCherry reporter line was created using CRISPR/Cas-based gene-targeting techniques (FIG. 6b). Immunofluorescence and FACS analyses confirmed the success of the protocol for generating putative hPSC-SAN cells, as condition 8 maximizes generation of SHOX2:GFP^+ cells (FIG. 1c, d). The sorted GFP^+ cells were enriched approximately 4000-fold for SHOX2 transcript levels compared to GFP^− cells (FIG. 1e), and most of the GFP^+ cells co-express ISL1 and HCN4, proteins closely associated with the development and function of SAN cells (FIG. 6b). To further enhance production of GFP^+ cells, we considered that SAN development may also be controlled epigenetically and performed an unbiased screen using a library of known epigenetic modulatory compounds. Cells were differentiated using condition 8 with compounds added at day 7 (FIG. 1f and FIG. 6c).
Pacemaker and cardiomyocyte induction. Differentiation was initiated 72 hours after plating when the culture was approximately 80% confluent. Step 1: Cells were differentiated with 1.5 μM CHIR99021 (CHIR, Stem-RD, Ch), 20 ng/mL BMP4 (B) and 20 ng/mL Activin A (AA) in RPMI (Cellgro) supplemented with B27 minus insulin, 2 mM GlutaMAX, 1× NEAA and 1× Pen/Strep for 3 days (RB27-INS). […]

hESC-SAN cells = assay: Ca2+-flux assay (calcium imaging) in hESC-SAN cells; format: cell-based, human; conditions: 1 μM ivabradine, recordings after 5 min vs baseline
Description: (§2) FIG. 2. Functional characterization of hPSC-SAN cells. a, Immunofluorescent co-staining of GFP with pacemaker-associated transcription factors (ISL1, TBX5 and NKX2.5) and ion channels (HCN4, Cav3.1, Cav1.3 and Cx30.2) in cells differentiated to day 30 or day 60. Scale bar=200 μM. b, qRT-PCR analysis using samples from GFP^+ (G+) or mCherry^+ (Ch+) cells at day 25 or day 45. n=3 independent experiments. Fold-change was normalized to undifferentiated hESC. c, Schematic for co-culture of hESC-derived ANs expressing eYFP-channelrhodopsin-2 with either hPSC-SAN or hESC-V; d, Immunofluorescence (left) and electron microscopy images (right) of hESC-AN and hPSC-SAN after 12 weeks of co-culture. Scale bar: 100 μM and 1 μM, respectively; e, Basal release of catecholamine was analyzed using an ELISA kit for AN alone, AN+hES-SAN and AN+hES-V conditions after 8 weeks of co-culture. n=3 independent experiments. f, Representative image of averaged action potentials recorded from an individual hPSC-SAN (left) and distribution (right) of dV/dtmax, APD30 and APD90 recorded used day 30 cells; g, Quantitative analysis of day 30 hPSC-SAN function in response to 1 μM ivabradine. Fold change in calcium transient amplitude (deltaF/F0) of hPSC-SAN or hESC-V cells before and after treatment with ivabradine (n=22 for hESC-SAN and =17 for hESC-V). *p<0.05 **p<0.01. t-test. Data are mean±s.e.m. […]

[6] = tested on: hESC-derived ventricular myocytes (hESC-V); assay: Ca2+-flux assay (calcium imaging) in hESC-derived ventricular myocytes; format: cell-based, human; conditions: cardiomyocyte (hESC-V) cultures, 1 μM ivabradine, recordings after 5 min vs baseline
Description: as §2

[7] = 1 uM doxorubicin+20 μM Physcion, 3 hrs

## COc1cccc2c1C(=O)c1c(O)c3c(c(O)c1C2=O)C[C@@](O)(C(=O)CO)C[C@@H]3O[C@H]1C[C@H](N)[C@H](O)[C@H](C)O1 [Doxorubicin]
[1]
  cytotoxicity (percentage of cleaved caspase3+ cells): significant cytotoxicity
[2]
  cell death (percentage of cleaved caspase3+ cells): no significant increase in cell death
[3]; 14 high-sensitive iPSC lines
  DOXO-induced apoptosis rate compared to DMSO-treated cells: greater than 4 fold
[3]; all 4 lines carrying the risk allele of rs1056892
  increased toxicity: greater than 4 fold
[3]; hPSC-SAN cells from all 48 iPSC lines
  percentage of cleaved caspase3+ ISL1 cells following DOXO: at least some increase
HCN4+ SAN cells
  variance in the time between contractions (coefficient of variance, COV): significantly higher variance in the time between contractions
Murine SAN; 1 μM doxorubicin, 3 hrs
  SAN cell death in atrial explants: localized SAN cell death
  contractility of atrial explants: irregular contractility
Murine SAN; 1.5 μM Doxorubicin
  contraction rhythmicity of explants (COV): irregular contractions marked by significantly higher variance in the time between contractions
A549 xenograft tumors
  tumor burden / growth (tumor wt. and volume), single agent: reduction in tumor wt. and volume
[4]; of treated patients
  sub-clinical systolic dysfunction: ~40%
[4]; treated patients
  DOXO-induced cardiomyopathy: 10-20%

## COc1cc(O)c2c(c1)C(=O)c1cc(C)cc(O)c1C2=O [Physcion, physcion]
hPSC-SAN cells; hPSC-SAN cells, 0.16 μM DOXO, 3 days
  effective dose to rescue DOXO-induced cell toxicity: 10 to 20 µM
hPSC-SAN cells; three most sensitive iPSC lines, DOXO with 10 μM Physcion vs without
  toxicity levels in hPSC-SAN cells from sensitive iPSC lines: significant decrease in toxicity levels
Murine SAN; [7]
  doxorubicin-induced SAN cell death of explants: blocks
  doxorubicin-induced arrhythmic contractility of explants: blocks
Murine SAN; 1.5 μM Doxorubicin+20 μM Physcion
  contraction rhythmicity of explants (COV): regained rhythmic contractions with minimal variance in periods between contractions
[5]
  chemotherapeutic effects of Physcion alone: does not exhibit chemotherapeutic effects
[5]; Physcion as high as 50 μM, varying doses of Doxorubicin
  effect on chemotoxic effects of Doxorubicin: did not block; also recorded: did not inhibit
A549 xenograft tumors
  tumor burden / growth (tumor wt. and volume), single agent: did not affect tumor growth
A549 xenograft tumors; Physcion plus Doxorubicin, 4 mg/kg each
  effect on chemotherapeutic effects of Doxorubicin in vivo: did not block; also recorded: did not inhibit the chemotherapeutic effects of Doxorubicin

## Nc1cc(F)ccc1NC(=O)c1ccc(CNC(=O)/C=C/c2cccnc2)cc1 [chidamide]
SHOX2:GFP+ cells
  percentage of GFP+ cells: ~50%

## COc1cc2c(cc1OC)CC(=O)N(CCCN(C)C[C@H]1Cc3cc(OC)c(OC)cc31)CC2 [ivabradine, Ivabradine]
hESC-SAN cells
  contractions and calcium activity: significant reduction
[6]
  contractions and calcium activity: no significant difference
